Results on 18 compounds are retold here after patent US7871999B2, “Substituted thiazoles and their use for producing drugs” (Gruenenthal GmbH, priority 2005, dated 2011).

The target in assay [1] is T1, mGluR5 receptor (Homo sapiens, UniProt P41594).
T1 construct: host or cells: CHO cells (CHO-hmGluR5), incubated overnight with doxycycline
Kind of assay: Functional Ca^2+ influx assay in the mGluR5 receptor assay (CHO-hmGluR5 cells, DHPG 10 μM). Format: cell-based. Conditions: Ki=IC50/(1+(AGconc./EC50)). The text has this:
II. Method for Determining Ca^2+ Influx in the mGluR5 Receptor Assay
[…] According to this assay, intracellular Ca^2+ release is quantified after activation of the mGluR5 receptor with the assistance of a Ca^2+-sensitive dye (type Fluo-4, Molecular Probes Europe BV, Leiden, Netherlands) in a FlexStation (Molecular Devices, Sunnyvale, USA).
Description of the Functional Ca^2+ Influx Assay
20,000 CHO-hmGluR5 cells/well (Euroscreen, Gosselies, Belgium) are pipetted out into 96 well plates (BD Biosciences, Heidelberg, Germany, Ref. 356640, clear bottom, 96 well, poly-D-lysine) and incubated overnight in HBSS buffer (Gibco No. 14025-050) with the following additives: 10% FCS (GIBCO, 10270-106) and doxycycline (BD Biosciences Clontech 631311 600 ng/ml).
For the purpose of functional investigation, the cells were loaded with 2 μM Fluo-4 and 0.01 vol. % Pluronic F127 (Molecular Probes Europe BV, Leiden, Netherlands) in HBSS buffer (Hank's buffered saline solution, Gibco Invitrogen GmbH, Karlsruhe, Germany) with Probenicid (Sigma P8761, 0.69 mg/ml) for 30 min at 37° C.
The cells are then washed 3 times with washing buffer (HBSS buffer, Gibco No. 14025-050, with Probenicid (Sigma P8761, 0.69 mg/ml) and then resuspended with the same buffer to make up to 100 μl. After 15 min, the plates are transferred for determination of Ca^2+ measurements in the presence of DHPG ((S)-3,5-dihydroxyphenylglycine, Tocris Biotrend Chemikalien GmbH, Cologne, Germany, final DHPG concentration: 10 μM) and in the presence or absence of test substances into a FLuorometric Imaging Plate Reader (FLIPR, Molecular Devices, Sunnyvale, Calif.).
Ca^2+-dependent fluorescence is measured before and after addition of test substances. Quantification proceeds by measuring the highest fluorescence intensity over time.
After recording a fluorescence baseline for 10 s, 50 μl of test substance solution (various test substance concentrations in HBSS buffer with 1% DMSO and 0.02% Tween 20, Sigma) are added and the fluorescence signal is measured for 6 min. Then, 50 μl of DHPG solution ((S)-3,5-dihydroxyphenylglycine, Tocris Biotrend Chemikalien GmbH, Cologne, Germany, final DHPG concentration: 10 μM) are added and Ca^2+ influx is simultaneously measured for 60 s. The final DMSO concentration amounts to 0.25% and the final Tween 20 content amounts to 0.005%. The data are analysed with Microsoft Excel and GraphPad Prism. The dose-response curves are calculated with non-linear regression and IC50 values are determined. Each data point is determined in triplicate and IC50 values are averaged from a minimum of 2 independent measurements.
Ki values are calculated using the following formula: Ki=IC50/(1+(AGconc./EC50)).
AGconc.=10 μM; EC50 corresponds to the DHPG concentration which is necessary for the semimaximal influx of Ca^2+.

Assay [2] deals with T2, mGluR5 receptor (Sus scrofa, UniProt I3LUI7).
T2 construct: pig brain hemispheres without medulla, cerebellum and pons ... differential centrifugation at 900×g and 40,000×g
T2 sequence (I3LUI7 1-1212): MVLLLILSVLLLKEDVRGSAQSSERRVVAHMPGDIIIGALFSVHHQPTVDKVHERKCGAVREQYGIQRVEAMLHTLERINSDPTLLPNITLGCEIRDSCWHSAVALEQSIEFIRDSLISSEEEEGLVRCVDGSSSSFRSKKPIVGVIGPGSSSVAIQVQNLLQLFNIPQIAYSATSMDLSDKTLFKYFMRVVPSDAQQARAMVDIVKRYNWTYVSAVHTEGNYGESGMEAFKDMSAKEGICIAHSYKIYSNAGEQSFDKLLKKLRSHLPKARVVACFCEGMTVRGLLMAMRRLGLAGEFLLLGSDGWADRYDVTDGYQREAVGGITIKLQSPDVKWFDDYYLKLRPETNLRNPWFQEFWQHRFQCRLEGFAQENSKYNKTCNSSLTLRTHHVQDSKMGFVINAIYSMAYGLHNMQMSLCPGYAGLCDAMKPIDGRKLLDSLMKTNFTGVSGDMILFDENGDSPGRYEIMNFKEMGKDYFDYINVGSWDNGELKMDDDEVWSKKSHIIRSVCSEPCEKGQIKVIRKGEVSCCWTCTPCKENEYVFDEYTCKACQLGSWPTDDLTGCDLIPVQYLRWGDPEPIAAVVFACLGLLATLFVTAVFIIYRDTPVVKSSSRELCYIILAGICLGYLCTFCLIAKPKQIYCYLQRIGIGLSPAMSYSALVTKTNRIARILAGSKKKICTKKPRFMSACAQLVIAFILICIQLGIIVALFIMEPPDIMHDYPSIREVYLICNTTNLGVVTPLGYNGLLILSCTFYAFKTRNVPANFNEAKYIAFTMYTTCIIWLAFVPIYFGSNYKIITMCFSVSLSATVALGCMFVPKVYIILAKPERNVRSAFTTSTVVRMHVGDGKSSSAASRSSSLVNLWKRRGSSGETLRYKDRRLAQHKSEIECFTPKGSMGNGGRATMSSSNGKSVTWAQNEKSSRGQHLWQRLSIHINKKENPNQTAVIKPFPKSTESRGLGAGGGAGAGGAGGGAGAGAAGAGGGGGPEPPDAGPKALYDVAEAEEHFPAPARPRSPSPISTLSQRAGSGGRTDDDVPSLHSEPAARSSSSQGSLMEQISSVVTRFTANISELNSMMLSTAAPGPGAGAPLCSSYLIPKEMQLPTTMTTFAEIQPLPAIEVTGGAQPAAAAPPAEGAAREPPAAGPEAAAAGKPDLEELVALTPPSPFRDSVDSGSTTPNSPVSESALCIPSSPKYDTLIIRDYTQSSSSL
Kind of assay: Inhibition of [^3H]-MPEP binding in the mGluR5 receptor binding assay (pig brain homogenate). Conditions: 5 nM [^3H]-MPEP; for inhibition at 10 µM: 10 μM test compound; for inhibition at 1 µM: 1 μM test compound. How it is done:
I. Method for Determining the Inhibition of [^3H]-MPEP Binding in the mGluR5 Receptor Binding Assay […]
The batches are then filtered with the assistance of a Brandel Cell Harvester (Brandel, Robotic 9600 model) on Unifilter plates with glass filter mats (Perkin Elmer, order number 6005177) and then washed 3 times with buffer (as above) using 250 μl per sample. The filter plates are then dried for 60 min at 55° C. Then 30 μl of Ultima Gold™ scintillating material (Packard BioScience, order number 6013159) is added per well and after 3 hours the samples are measured using the β counter (Microbeta, Perkin Elmer). Nonspecific binding is determined by the addition of 10 μM MPEP (Tocris, order number 1212).

Another assay relates to rats. Put plainly: Formaldehyde test in rats (phase 2, chronic pain component). Format: in vivo. Conditions: rat. How it is done: III. Formaldehyde Test in Rats: The formaldehyde test (Dubuisson, D. and Dennis, S. G., 1977, Pain, 4, 161-174) is a model of both acute and chronic pain. A biphasic nociceptive response is induced in freely mobile test animals by a single formaldehyde injection into the dorsal side of a hind paw, said response being detected by the observation of three clearly distinguishable behaviour patterns. The response is in two phases: phase 1=immediate response (duration up to 10 min; paw shaking, licking), phase 2=late response (after a resting phase; likewise paw shaking, licking; duration up to 60 min). The 1st phase reflects direct stimulation of the peripheral nocisensors with an elevated spinal nociceptive input or glutamate release (acute pain phase); the 2nd phase reflects spinal and peripheral hypersensitisation (chronic pain phase). In the investigations presented here, it was the chronic pain component (phase 2) which was evaluated. […] The specific behavioural changes, such as raising and shaking the paw, changes in weight bearing of the animal and biting and licking responses are observed and recorded over the observation period of 21 to 27 min after the formaldehyde injection. The various behaviours are summarised as a “pain rate” (PR), which is the calculated nociceptive response averaged over 3 min sub-intervals. […]

T1 sequence (P41594 21-1212): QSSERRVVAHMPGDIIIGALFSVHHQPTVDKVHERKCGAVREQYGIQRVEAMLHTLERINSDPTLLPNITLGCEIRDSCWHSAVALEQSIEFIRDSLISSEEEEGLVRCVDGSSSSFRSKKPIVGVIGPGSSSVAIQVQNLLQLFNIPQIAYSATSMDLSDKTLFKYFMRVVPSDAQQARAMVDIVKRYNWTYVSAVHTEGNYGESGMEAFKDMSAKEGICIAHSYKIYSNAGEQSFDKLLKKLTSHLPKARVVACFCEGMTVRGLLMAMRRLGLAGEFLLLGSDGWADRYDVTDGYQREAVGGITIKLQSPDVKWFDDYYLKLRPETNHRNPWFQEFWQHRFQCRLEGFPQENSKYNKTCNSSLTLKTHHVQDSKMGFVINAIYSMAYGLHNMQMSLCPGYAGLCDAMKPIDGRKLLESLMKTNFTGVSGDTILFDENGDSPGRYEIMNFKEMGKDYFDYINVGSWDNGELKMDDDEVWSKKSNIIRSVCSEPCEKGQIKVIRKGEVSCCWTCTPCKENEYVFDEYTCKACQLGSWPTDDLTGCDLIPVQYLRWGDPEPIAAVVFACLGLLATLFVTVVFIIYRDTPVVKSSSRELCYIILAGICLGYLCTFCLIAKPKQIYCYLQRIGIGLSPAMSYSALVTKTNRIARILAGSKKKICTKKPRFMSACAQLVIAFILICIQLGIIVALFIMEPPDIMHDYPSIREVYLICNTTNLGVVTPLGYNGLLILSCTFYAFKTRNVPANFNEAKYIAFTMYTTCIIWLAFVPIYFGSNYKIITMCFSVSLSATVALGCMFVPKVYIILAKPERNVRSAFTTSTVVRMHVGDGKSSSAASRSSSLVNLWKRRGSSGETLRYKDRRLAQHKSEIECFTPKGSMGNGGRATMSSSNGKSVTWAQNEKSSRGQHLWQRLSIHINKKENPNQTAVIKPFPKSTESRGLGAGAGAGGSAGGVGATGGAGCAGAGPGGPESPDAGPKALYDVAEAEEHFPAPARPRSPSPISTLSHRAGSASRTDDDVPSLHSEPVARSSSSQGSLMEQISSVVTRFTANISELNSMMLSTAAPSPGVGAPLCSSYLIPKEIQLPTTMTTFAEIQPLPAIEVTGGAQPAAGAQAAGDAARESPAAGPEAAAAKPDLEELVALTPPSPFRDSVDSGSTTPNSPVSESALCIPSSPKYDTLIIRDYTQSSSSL

The Ki is a measure of affinity in units of concentration, obtained from inhibition or displacement. A low value points to tighter binding. For orientation: IC50 means the concentration at which inhibition is half-maximal. The low end stands for greater potency, the high end for weaker potency. In the case of `CN(CCN(C)c1nccs1)C(=O)C#Cc1ccccc1` [Example 4, N-Methyl-N-(2-(methyl(thiazol-2-yl)amino)ethyl)-3-phenylpropiolamide], at mGluR5 receptor [1], the affinity corresponds to a Ki of 5.2 nM. Moreover, the IC50 on mGluR5 receptor [2] came out at 57 nM.

`Cc1cccc(C#CC(=O)N(C)CCN(C)c2nccs2)c1` [Example 7, N-methyl-N-(2-(methyl(thiazol-2-yl)amino)ethyl)-3-(3-methylphenyl)-propiolamide] returned a Ki at mGluR5 receptor [1] of 4.8 nM. Also, the IC50 on mGluR5 receptor [2] is 26 nM.

The compound `CN(CCNC(=O)C#Cc1ccccc1)c1nccs1` [Example 9, N-(2-(methyl(thiazol-2-yl)amino)ethyl)-3-phenylpropiolamide] registered a Ki on mGluR5 receptor [1] of 1 nM. The same compound displayed a 50% inhibitory concentration (IC50) on mGluR5 receptor [2] of 38 nM.

`CN(CCN(C)c1nccs1)C(=O)C#Cc1cccc(C#N)c1` [Example 13, N-methyl-N-(2-(methyl(thiazol-2-yl)amino)ethyl)-3-(3-cyanophenyl)-propiolamide] registered a Ki at mGluR5 receptor [1] of 20.8 nM. At mGluR5 receptor [2], this compound gave an IC50 of 87 nM.

`O=C(C#Cc1ccccc1)NC1CCCN(c2nccs2)C1` (stereo not shown) [Example 15, 3-Phenyl-N-(1-(thiazol-2-yl)piperidin-3-yl)propiolamide] came in with a Ki on mGluR5 receptor [1] of 14.4 nM. Also, at mGluR5 receptor [2], the IC50 came to 86 nM.

`CN(CCN(C)c1nccs1)C(=O)C#Cc1cccc(Cl)c1` [Example 18, N-Methyl-N-(2-(methyl(thiazol-2-yl)amino)ethyl)-3-(3-chlorophenyl)-propiolamide] registered a Ki at mGluR5 receptor [1] of 4.9 nM. This compound also yielded an IC50 at mGluR5 receptor [2] of 20 nM.

Turning to `CN(CCNC(=O)C#Cc1cccc(Cl)c1)c1nccs1` [Example 19, N-(2-(Methyl(thiazol-2-yl)amino)ethyl)-3-(3-chlorophenyl)-propiolamide], the Ki on mGluR5 receptor [1] worked out at 0.4 nM. Besides, the IC50 at mGluR5 receptor [2] was found to be 1.9 nM.

The ED50 is the dose that gives a 50% effect, or the effect in half of the subjects. Lower therefore signals greater potency. With `CN(CCNC(=O)C#Cc1cccc(Cl)c1)c1nccs1.Cl` [Example 23, N-(2-(Methyl(thiazol-2-yl)amino)ethyl)-3-(3-chlorophenyl)-propiolamide hydrochloride], the ED50 in the assay on rats (iv, i.v. administration) came to 1 mg/kg. Further, the “inhibition in the formaldehyde test” value in the assay with rats (oral administration of 10 mg/kg) was determined as 38%. The same compound had an IC50 at mGluR5 receptor [2] of 5.6 nM.

On to `CCOC(=O)c1csc(N(C)CCNC(=O)C#Cc2cccc(Cl)c2)n1` [Example 26, N-(2-(methyl-(4-ethoxycarbonylthiazol-2-yl)amino)ethyl)-3-(3-chlorophenyl)-propiolamide], for which, at mGluR5 receptor [1], affinity was put at a Ki of 3.6 nM. At mGluR5 receptor [2], the IC50 was found to be 86 nM.

Take `O=C(C#Cc1cccc(Cl)c1)NC1CCCN(c2nccs2)C1` (stereo not shown) [Example 32, 3-(3-chlorophenyl)-N-(1-(thiazol-2-yl)piperidin-3-yl)-propiolamide]: on mGluR5 receptor [1], the Ki was found to be 4 nM. Further, at mGluR5 receptor [2], the IC50 worked out at 5 nM.

For the compound `CN(CCNC(=O)C#Cc1cccc(Cl)c1)c1nc(Br)cs1` [Example 33, N-(2-((4-bromothiazol-2-yl)(methyl)amino)ethyl)-3-(3-chlorophenyl)propiolamide], affinity on mGluR5 receptor [1] was put at a Ki of 10 nM. Also, the IC50 at mGluR5 receptor [2] amounted to 13 nM.

In turn, `CN(c1nccs1)C1CN(C(=O)C#Cc2cccc(Cl)c2)C1` [Example 35, 1-(3-(3-Chlorophenyl)propioloyl)-3-(methyl(thiazol-2-yl)amino)azetidine] showed a Ki on mGluR5 receptor [1] of 6.5 nM. Also, on mGluR5 receptor [2], the IC50 was found to be 2.2 nM.

Broadly, the inhibition is the percentage by which the read-out fell short of the control. Regarding `Cc1nc(N2CCC(NC(=O)C#Cc3cccc(Cl)c3)C2)sc1C` (stereo not shown) [Example 110, 3-(3-chlorophenyl)-N-(1-(4,5-dimethylthiazol-2-yl)pyrrolidin-3-yl)propiolamide], the inhibition at 10 µM on mGluR5 receptor [2] is 63%.

Compound `Cc1cnc(N2CCC(NC(=O)C#Cc3cccc(Cl)c3)C2)s1` (stereo not shown) [Example 112, 3-(3-chlorophenyl)-N-(1-(5-methylthiazol-2-yl)pyrrolidin-3-yl)propiolamide] registered an inhibition at 1 µM at mGluR5 receptor [2] of 24%.

Turning to `Cc1cnc(N2CCC(NC(=O)C#Cc3cccs3)C2)s1` (stereo not shown) [Example 113, N-(1-(5-methylthiazol-2-yl)pyrrolidin-3-yl)-3-(thiophen-2-yl)propiolamide], the inhibition at 10 µM on mGluR5 receptor [2] turned out to be 22%.

In the case of `Cc1cnc(N2CCC(NC(=O)C#Cc3ccccn3)C2)s1` (stereo not shown) [Example 119, N-(1-(5-methylthiazol-2-yl)pyrrolidin-3-yl)-3-(pyridin-2-yl)propiolamide], the inhibition at 10 µM at mGluR5 receptor [2] was 20%.

With `CC(C)(C)c1csc(N2CCC(NC(=O)C#Cc3cccnc3)C2)n1` (stereo not shown) [Example 123, N-(1-(4-tert.-butylthiazol-2-yl)pyrrolidin-3-yl)-3-(pyridin-3-yl)propiolamide], the inhibition at 1 µM on mGluR5 receptor [2] came to 20%.

Compound `CN(CCNC(=O)C#Cc1cccc(Cl)c1)c1ncc(F)s1` [Example 126, 3-(3-Chlorophenyl)-N-(2-((5-fluorothiazol-2-yl)(methyl)amino)ethyl)propiolamide] yielded an IC50 at mGluR5 receptor [2] of 16 nM.
